The values below come from US8476451B2 (priority 2007, dated 2013).

SMILES strings stand for the structures. Values after ≈ are worked out from the molar mass of the structure shown.

For series [1], the system named is L929 mouse fibroblast cells. Kind of series: Growth inhibition, MTT assay, L929. The format is cell-based. The following applies: for Cytotoxicity / activity relative to tubulysin D, in words: statement on Table 2 cell lines. On the procedure: (§1) Cell lines were obtained from the American Type Culture Collection (ATCC) and the German Collection of Microorganisms and Cell Cultures (DSMZ). All cell lines were cultivated under conditions recommended by their respective depositors. Growth inhibition was measured in microtiter plates. Aliquots of 120 μl of the suspended cells (50,000/mL) were given to 60 μL of a serial dilution of the inhibitor and incubated at 37° C. and 10% CO2. After 5 days, when control cells had grown to confluence state, the metabolic activity in each well was determined using an MTT assay.
Background: Tetrazolium dyes change colour on reduction, which living cells bring about.

For series [2], the system named is SW-480 human colon adenocarcinoma cells. The series is described as follows: Growth inhibition, MTT assay, SW-480. The note with it: for Activity relative to tubulysin D in SW-480, in words: colon cancer cell line SW-480. Format: cell-based. On the procedure: as §1
Series [3] can be described thus: Growth inhibition, MTT assay, L929. Format: cell-based, Mouse. The following applies: mouse, L929 mouse fibroblast cells; cell line not given; read-out: Cytotoxicity (text, refers to Table 2). On the procedure: as §1
The subject of series [4] is KB-3-1 human cervix carcinoma cells. Kind of series: Growth inhibition, MTT assay, KB-3-1. The following applies: KB 3-1, 120 h; human cervix carcinoma (DSMZ ACC 158); MTT after 5 days; read-out: IC50 (ng/mL) KB-3-1. The format is cell-based. On the procedure:
as §1

`CC[C@H](C)[C@H](NC(=O)[C@H]1CCCCN1C)C(=O)N(COC(=O)CC(C)C)[C@H](C[C@@H](OC(C)=O)c1nc(C(=O)O)cs1)C(C)C` [Analogue 5, 2-[1-acetoxy-4-methyl-3-((3-methyl-butyryloxymethyl)-{3-methyl-2-[(1-methyl-piperidine-2-carbonyl)-amino]-pentanoyl}-amino)-pentyl]-thiazole-4-carboxylic acid]: the “Cytotoxicity / activity relative to tubulysin D, in words” value in series [1] was “maintained good activity”. On the same count and under the same terms, to `CC[C@H](C)[C@H](NC(=O)[C@H]1CCCCN1C)C(=O)N(COC(=O)CC(C)C)[C@H](C[C@@H](OC(C)=O)c1nc(C(=O)NCCCC(=O)O)cs1)C(C)C` [Analogue 3, 3-Methyl-butyric acid ((1-{2-acetoxy-2-[4-(3-carboxy-propylcarbamoyl)-thiazol-2-yl]-ethyl}-2-methyl-propyl)-{3-methyl-2-[(1-methyl-piperidine-2-carbonyl)-amino]-pentanoyl}-amino)-methyl ester] belongs “cytoxicity comparable to the parent tubulysin”; to `CC[C@H](C)[C@H](NC(=O)[C@H]1CCCCN1C)C(=O)N(COC(=O)CC(C)C)[C@H](C[C@@H](OC(C)=O)c1nc(C(=O)NC)cs1)C(C)C` [Analogue 4, 3-methyl-butyric acid ({1-[2-acetoxy-2-(4-methylcarbamoyl-thiazol-2-yl)-ethyl]-2-methyl-propyl}-{3-methyl-2-[(1-methyl-piperidine-2-carbonyl)-amino]-pentanoyl}-amino)-methyl ester], “maintained good activity”. On to `CC[C@H](C)[C@H](NC(C)=O)C(=O)N(COC(=O)CC(C)C)[C@H](C[C@@H](OC(C)=O)c1nc(C(=O)N[C@@H](Cc2ccccc2)C[C@H](C)C(=O)O)cs1)C(C)C` [Analogue 7], for which the “Cytotoxicity / activity relative to tubulysin D, in words” value in series [1] was “drastic decrease in activity”. In the case of `CC[C@H](C)[C@H](N=[N+]=[N-])C(=O)N(COC(=O)CC(C)C)[C@H](C[C@@H](OC(C)=O)c1nc(C(=O)N[C@@H](Cc2ccccc2)C[C@H](C)C(=O)O)cs1)C(C)C` [Analogue 8, 4-[(2-{1-acetoxy-3-[(2-azido-3-methyl-pentanoyl)-(3-methyl-butyryloxymethyl)-amino]-4-methyl-pentyl}-thiazole-4-carbonyl)-amino]-2-methyl-5-phenyl-pentanoic acid], in series [1], the “Cytotoxicity / activity relative to tubulysin D, in words” value is “drastic decrease in activity”. Take `CC[C@H](C)[C@H](NC(=O)[C@H]1CCCCN1C)C(=O)N(C)[C@H](C[C@@H](OC(C)=O)c1nc(C(=O)N[C@@H](Cc2ccccc2)C[C@H](C)C(=O)O)cs1)C(C)C` [Analogue 10, 4-({2-[1-Acetoxy-4-methyl-3-(methyl-{3-methyl-2-[(1-methyl-piperidine-2-carbonyl)-amino]-pentanoyl}-amino)-pentyl]-thiazole-4-carbonyl}-amino)-2-methyl-5-phenyl-pentanoic acid]: the “Activity relative to tubulysin D in SW-480, in words” value in series [2] is recorded as “more active than tubulysin D”. `CC[C@H](C)[C@H](NC(=O)[C@H]1CCCCN1C)C(=O)N(COC(=O)CC(C)C)[C@H](C[C@@H](OC(C)=O)c1nc(C(=O)NCCc2ccccc2)cs1)C(C)C` [Analogue 2, 3-methyl-butyric acid ({1-[2-acetoxy-2-(4-phenethylcarbamoyl-thiazol-2-yl)-ethyl]-2-methyl-propyl}-{3-methyl-2-[(1-methyl-piperidine-2-carbonyl)-amino]-pentanoyl}-amino)-methyl ester]: the “Cytotoxicity / activity relative to tubulysin D, in words” value in series [1] is reported as “cytoxicity comparable to the parent tubulysin”. For the compound `CC[C@H](C)[C@H](NC(=O)[C@H]1CCCCN1C)C(=O)N(C)[C@H](C[C@@H](OC(C)=O)c1nc(C(=O)NC)cs1)C(C)C` [Analogue 11, acetic acid 4-methyl-1-(4-methylcarbamoyl-thiazol-2-yl)-3-(methyl-{3-methyl-2-[(1-methyl-piperidine-2-carbonyl)-amino]-pentanoyl}-amino)-pentyl ester], in series [3], the IC50 at 5 days stood at 2 ng/mL (≈ 3.62 nM). As to `CC[C@H](C)[C@H](NC(=O)CN(C)C)C(=O)N(COC(=O)CC(C)C)[C@H](C[C@@H](OC(C)=O)c1nc(C(=O)N[C@@H](Cc2ccccc2)C[C@H](C)C(=O)O)cs1)C(C)C` [Analogue 6, 4-[(2-{1-acetoxy-3-[[2-(2-dimethylamino-acetylamino)-3-methyl-pentanoyl]-(3-methyl-butyryloxymethyl)-amino]-4-methyl-pentyl}-thiazole-4-carbonyl)-amino]-2-methyl-5-phenyl-pentanoic acid], the “Cytotoxicity / activity relative to tubulysin D, in words” value in series [1] is “essentially equipotent with tubulysin D”. For the same compound, the “Activity relative to tubulysin D in SW-480, in words” value in series [2] is listed as “more active than tubulysin D”.

For the compound `CC[C@H](C)[C@H](NC(=O)[C@H]1CCCCN1C)C(=O)N(COC(=O)CC(C)C)[C@H](C[C@@H](O)c1nc(C(=O)N[C@@H](Cc2ccccc2)C[C@H](C)C(=O)O)cs1)C(C)C` [Analogue 9], the IC50 in series [1] (L929, 120 h, mouse fibroblasts (DSMZ ACC 2), MTT after 5 days, read-out: IC50 (ng/mL) L929) worked out at 0.25 ng/mL (≈ 0.318 nM); in series [2] (SW480, 120 h, human colon adenocarcinoma (ATCC CCL-228), MTT after 5 days, read-out: IC50 (ng/mL) SW-480), 0.057 ng/mL (≈ 0.0725 nM); in series [4] it was 0.22 ng/mL (≈ 0.28 nM). Further, the “Cytotoxicity / activity relative to tubulysin D, in words” value in series [1] is listed as “minimal drop in cytotoxicity relative to the natural product”.
